Laboratory results published in patent publication US7592003B2, “Regulation of toll-like receptors on stem cells” (Oklahoma Medical Research Foundation, priority 2005, dated 2009).

Key:
CLP [1] = assay: Serum-free, stromal cell-free culture of CLP with SCF, FL and IL-7, CD19/Mac-1 flow cytometry; format: cell-based, mouse
Protocol: FIGS. 6A-D—TLR stimulation allows lymphoid biased progenitors to produce myeloid dendritic cells at the expense of B lymphopoiesis. (FIG. 6A) Sorted CLP (5,000/well) from C57BL/6 or MyD88^−/− mice were stimulated in X-VIVO15 with medium alone, LPS (10 μg/ml) or Pam3CSK4 (100 ng/ml) plus SCF, FL and IL-7. After 7 days in culture, cells were analyzed by flow cytometry for expression of CD19and Mac-1 (left). The bar graphs depict cell yields for CD19^+ cells or Mac-1^+ cells (right) and the data represent mean values with standard deviations from triplicate cultures (*P<0.02). The results are representative of those obtained in five independent experiments. (FIG. 6B) Subsets of the recovered cells described in FIG. 6A were sorted and used to prepare Giemsa stained slides. (FIG. 6C) Cultured cells from C57BL/6 mice were also analyzed by flow cytometry for expression of Gr-1 and CD11c. (FIG. 6D) Sorted CLP from C57BL/6 mice were cultured in the presence of SCF, FL and IL-7 with a range of concentrations of LPS or combination of recombinant mouse CD14-Fc protein (1 μg/ml) plus LPS. After 7 days in culture, cells were analyzed by flow cytometry for expression of CD19 and Mac-1 (left). The bar graph depicts cell yields for CD19^+ cells or Mac-1^+ cells (right). Data represent mean values with standard deviations from triplicate cultures (*P<0.003). […]

CLP [2] = assay: Single cell culture of TLR ligand pre-treated CLP on OP9 stromal cells; format: cell-based, mouse; details: 24 h pre-treatment, 10 days on OP9
Protocol: FIG. 7—Altered differentiation patterns of single lymphoid progenitors activated via TLRs. Sorted CLP were cultured in the presence of SCF, FL and IL-7 with medium alone, LPS (10 μg/ml) or Pam3CSK4 (1 μg/ml). After 24 h, cultured cells were harvested and washed three times with medium. Single cultured cells were then sorted and re-cultured on OP9 stromal cells in 96-well plates for 10 days in the presence of SCF, FL and IL-7. Positive colonies were examined by flow cytometry (representative examples shown on top row). The frequencies of wells with each of these differentiation patterns are shown along with total numbers of clones observed.
Single cell culture on OP9 stromal cells. Sorted CLP were cultured with X-VIVO15in the presence of SCF (20 ng/ml), FL (100 ng/ml) and IL-7 (1 ng/ml) with or without LPS (10 μg/ml), or Pam3CSK4 (1 μg/ml). After 24 h, cultured cells were harvested and washed with medium three times. A single cell sorting for the cultured cells was then conducted on a FACSAria™ and a single cell was plated on OP9 stromal cells in 96-well plate and cultured for 10 days in the presence of SCF (20 ng/ml), FL (100 ng/ml) and IL-7 (1 ng/ml). […] Positive wells (more than 30 cells) were determined by microscopic observation. Cells were harvested and then stained with mAbs to CD19, CD11c, and Mac-1 and analyzed by flow cytometry. […]

Q: With Pam3CSK4 as the substance, how does the “Phenotype (CD11c, Gr-1) of cells produced from CLP” value (CLP [1]; 7 days) read?
A: Its value is “Gr-1^− but less homogenous”.

Q: What about the “Cell types emerging from CLP (CD19+ vs Mac-1+)” value (CLP [1]; with SCF, FL and IL-7, 7 days) of the same substance?
A: Its value is “a mixture of the two cell types”.

Q: And the “Numbers of pure CD19+ B cell clones” value (CLP [2])?
A: Its value is “did not alter the production of CD19^+ B cell clones”.

Q: And the “Numbers of pure mDC colonies” value (CLP [2])?
A: The value was “enhanced production of colonies with pure mDC”.
